In US8557875B2, “Gene transfer agent composition containing polyamidoamine dendron” (Public University Corporation Osaka Prefecture University, priority 2009, dated 2013):

Legend:
NHDF-ad cells [1] = assay: Gene transfer (GFP expression, luciferase activity) versus commercial agents (Example 6); format: cell-based, human; conditions: single transfection, 48 hours
Method: (§1) pEGFP-C1 expressing a green fluorescent protein was used as a gene transfer plasmid; and NHDF-ad cells, which were normal […] cells derived from adult humans and also used for the production of iPS cells, were used as target cells. Lipoplexes were individually prepared using DL-U2. Then, gene transfer was performed.
(NHDF-ad cells: 2.5×10^4 cells/well·DMEM+10% FBS (Pe/St) 500 μl)
(i) A 20 mM Tris-HCl (pH 7.4) buffer was dispensed into two tubes at, individually, 56.3 μl (for NP ratio=3) and 37.5 μl (for NP ratio=6).
(ii) 1.0 μg of plasmid DNA (pCAG-GFP) was added to each of the two tubes prepared in step (i) at 2 μl (1.0 μg), and the contents were stirred. […]
(vii) 48 hours later, luciferase activity was measured according to the protocol of the luciferase assay system (Promega, E1501).
Lipofectamine LTX: Gene transfer was performed according to the protocol, and luciferase activity was measured according to the protocol of the luciferase assay system (Promega, E1501).
FuGENE HD: Gene transfer was performed according to the protocol, and luciferase activity was measured according to the protocol of the luciferase assay system (Promega, E1501).
FuGENE6: Gene transfer was performed according to the protocol, and luciferase activity was measured according to the protocol of the luciferase assay system (Promega, E1501).

NHDF-ad cells [2] = assay: Multiple gene transfer, GFP expression (Example 7); format: cell-based, human; conditions: transfer on Day 1, 3, 5, observed Day 7
Method: as §1, with “plasmid,” for “plasmid;”, “humans” for “humans and”, “for” for “for the”, “performed multiple times.” for “performed.”
(NHDF-ad cells: 2×10^4 cells/well·DMEM+10% FBS (Pe/St) 500 μl)
(i) A 20 mM Tris-HCl (pH 7.4) buffer was dispensed into tubes at 71 μl (for NP ratio=6).
(ii) 2.0 μg of plasmid DNA (pCAG-GFP) were added to each of the two tubes prepared in step (i) at 4 μl (2.0 μg), and the contents were stirred.
(iii) To the prepared plasmid DNA solution was added 75 μl of a DL-U2 liposome solution (N/P ratio=6), and the whole was thoroughly mixed using a vortex and incubated at room temperature for 30 minutes.
(iv) 50 μl of an Opti-MEM(R) I Reduced-Serum Medium was further added, and the whole was thoroughly mixed and allowed to stand at room temperature for 5 minutes.
(v) 100 μl per well of the DL-plasmid DNA complex solutions was individually added to one well, and the contents were mixed by shaking the plate so as to be homogeneous.
(§2) (vi) The cells were incubated at 37° C. in 5% CO2 for 4 hours, and the growth medium was replaced.
For the cells subjected to gene transfer operations on Day 1, the same gene transfer was performed on Day 3 and Day 5 as well.

various types of cells = assay: Transfection of various cell strains, GFP expression (Example 8); format: cell-based; conditions: COS7, HeLa-S3, A549, U2OS, SKOV3, Balb3T3, CHO, Jurkat, K562; 48 hours
Method: 4 hours after the addition, the medium was replaced (however, the medium was not replaced for Jurkat, K562). […] It should be noted that experimental conditions not described in the table conformed to those of the other examples.

HeLa-S3 = assay: Cytotoxic evaluation on gene transfer (Example 5); format: cell-based; conditions: compared with Lipofectamine LTX and FuGENE HD
NHDF-ad cells [3] = assay: Toxicity evaluation after multiple gene transfer, WST-8 kit (Example 7); format: cell-based, human; conditions: transfer on Day 1, 3, 5, WST-8 on Day 7
Method: (NHDF-ad cells: 3.5×10^3 cells/well·DMEM+10% FBS (Pe/St) 70 μl)
(i) A 20 mM Tris-HCl (pH 7.4) buffer was dispensed into tubes at 35.5 μl (for NP ratio=6).
(ii) 1.0 μg of plasmid DNA (pCAG-GFP) was added to each of the two tubes prepared in step (i) at 2 μl (1.0 μg), and the contents were stirred.
(iii) To the prepared plasmid DNA solution was added 37.5 μl of a DL-U2 liposome solution (N/P ratio=6), and the whole was thoroughly mixed using a vortex and incubated at room temperature for 30 minutes.
(iv) 25 μl of an Opti-MEM(R) I Reduced-Serum Medium was further added, and the whole was thoroughly mixed and allowed to stand at room temperature for 5 minutes.
7 μl and 14 μl per well of the DL-plasmid DNA complex solutions was individually added to three wells, and the contents were mixed by shaking the plate so as to be homogeneous.
as §2
For the cells subjected to gene transfer operations on Day 1, the same gene transfer was performed on Day 3 and Day 5, as well.
Day 7 Toxicity evaluation was performed according to the protocol of a WST-8 kit (Kishida Chemical Co., Ltd.).
(a well to which no lipoplex solution was added was defined as 100%) […]

CCCCCCCC/C=C\CCCCCCCCN(CCCCCCCC/C=C\CCCCCCCC)CCC(=O)NCCN(CCC(=O)NCCN)CCC(=O)NCCN (racemic) [DL-G1-U2]
gene transfer (GFP gene) efficiency (NHDF-ad cells [1]): allowed the gene to be transferred into the cells at a remarkably high frequency
gene transfer activity / gene expression after multiple gene transfer (NHDF-ad cells [2]): allowed the gene to be expressed most efficiently
gene transfer into various types of cells (various types of cells): allowed the gene to be efficiently transferred
cytotoxicity (HeLa-S3): lower cytotoxicity
toxicity after multiple gene transfer (NHDF-ad cells [3]): lowest toxicity
